Data from ChEMBL document CHEMBL4425181, “Synthesis and antileishmanial activity of the core structure of cristaxenicin A” (Bioorg Med Chem Lett, 2016).

Legend:
Assay type in all cases: functional, organism-based
[1] = system: Leishmania amazonensis; assay: Antileishmanial activity against Leishmania amazonensis promastigotes after 72 hrs by EGFP-reporter gene based fluorescence assay
[2] = system: Trypanosoma congolense; assay: Antitrypanosomal activity against Trypanosoma congolense IL3000 incubated for 48 hrs measured after 4 hrs
[3] = system: Leishmania donovani; assay: Antileishmanial activity against Leishmania donovani MHOM/NP/03/D10 promastigotes after 72 hrs by EGFP-reporter gene based fluorescence assay; conditions: MHOM/NP/03/D10, 72 h

Row | IC50 [1] [µM] | IC50 [2] [µM] | IC50 [3] [µM] | Compound
1 | 0.088 | 0.25 | – | CC(=O)O/C=C1\CCC/C(C=O)=C\C[C@@H]2C(C(=O)CC=C(C)C)=CO[C@H](OC(C)=O)[C@@H]12
2 | – | – | 2.4 | CO[C@H]1OC=C(C(=O)OC(C)C)[C@H]2C/C=C(/C=O)CCCC(=O)[C@H]12
